Test results: article PMC12474757, “Paving the way for future PSMA inhibitors: insights from comparative preclinical evaluations of structure modifications” (EJNMMI Radiopharmacy and Chemistry, 2025)
Where two headings read alike, the source gives them in different places. Values belong to the compound of their own block, whether it stands above or below them.

How the values were obtained:
[1] = Radiochemical stability in physiological pH water environment; type: physicochemical; conditions: pH 7, 37 °C; for Stability in Physiological pH (%): radiochemical purity, n = 1
Protocol: (§1) Quality control, i.e. radiochemical purity, of the ^68Ga-labelled PSMA inhibitors was evaluated by analytical high performance liquid chromatography (HPLC; Dionex UltiMate 3000, Thermo Scientific, Waltham, Massachusetts, USA) using the following equipment: ACE 3 C18 column; 150 × 3 mm, 3 μm (Advanced Chromatography Technologies Ltd, Aberdeen, UK), with gradient elution A: H2O/acetonitrile (ACN); B:0.1% trifluoroacetic acid (TFA)/H2O: 0–3 min, 0% ACN; 3–10 min, 0 − 50% ACN; 10–13 min, 50 − 80% ACN; 13–15 min, 80–0% ACN, for 15 min at a flow rate of 1 mL/min. Radiometric detection was performed using a GABI Star radiodetector (Raytest GmbH, Straubenhardt, Germany) and for chromatogram quantification Chromatography Data System (CDS) - Chromeleon software (Thermo Scientific, USA) was used. The actual sample injection was performed using a Hamilton microinjector (Hamilton, USA).
Radiochemical stability in a physiological pH water environment was determined as follows: 100 µL of acetate buffer (1.1 mol/L) was added to the labelled preparation and the pH was then checked with a pH indicator paper to be 7. The mixture was further incubated at 37 °C and after 30, 60 and 120 min, 10 µL aliquot was used for HPLC analysis of radiochemical purity.

[2] = test system: LNCaP tumour-bearing mice; assay: Ex vivo biodistribution in LNCaP tumour-bearing mice; set-up: species or system SCID mice; conditions: for tumour-to-blood ratio / tumour-to-muscle ratio / tumour-to-kidney ratio: mean ± SD, n = 4
Protocol: The eight-week-old male SCID mice (Charles River, Massachusetts, USA) were used to generate the mouse tumour model. The implantation of 10 million LNCaP cells (ATCC, Virginia, USA) per mouse in a 1:1 mixture of Matrigel matrix (Corning, New York, USA) was performed subcutaneously behind the right shoulder of the mouse. Tumours of adequate size, representing a volume of 100–300 mm³, were observed after five to six weeks.
Ex vivo biodistribution of PSMA inhibitors in tumor-bearing mice was conducted as follows. Concisely, 30 µL of acetate buffer was added to the each ⁶⁸Ga -labelled inhibitor, namely: ⁶⁸Ga-P15, ⁶⁸Ga-P16, ⁶⁸Ga-P19, and ⁶⁸Ga-PSMA-617 to achieve physiological pH. Mice were r.o. injected with 100 µL of labelled inhibitor (2 MBq, approximately 0.5 µg of the inhibitor). Animals were divided into two groups for biodistribution studies at 1 and 2 h after administration of the respective ^68Ga-labelled PSMA inhibitor. The animals were sacrificed and autopsied after euthanasia, and organs: spleen, pancreas, stomach, intestine, kidney, liver, heart, lung, muscle, bone, and tumour were collected in scintillation vials. The vials containing the samples were weighed and measured in a Wizard2 gamma counter (PerkinElmer, USA). The measured values were then adjusted for radionuclide decay and expressed as a percentage of administered dose per gram of organ (%ID/g). The NanoScan® hybrid Positron Emission Tomography/Computed Tomography (PET/CT) machine (Mediso, Budapest, Hungary) was used for in vivo imaging specifically whole-body helical PET/CT scans. Imaging settings were: single field of view (FOV) PET scans (98.5 mm) which took 10 min for each mouse and helical CT scans (50 kVp/980 µA, 720 projections) both took place one hour after the administration. Each mouse received an injection of approximately 10 MBq of tested radiopharmaceutical. To prevent the mice’s eyes from drying out during anaesthesia eye ointment (Ophthalmo-Azulen, Zentiva, CR) was applied. Image reconstruction was performed using Mediso Tera-Tomo 3D PET iterative reconstruction (Mediso Medical Imaging Systems, Budapest, Hungary). Both reconstruction and data evaluation were performed in Mediso InterView FUSION software (Mediso Medical Imaging Systems, Budapest, Hungary) (Mediso, Budapest, Hungary). Final images were normalised to injected activity and animal weight. All organs with radiopharmaceutical accumulation were roughly delineated on the images, while their SUVmax value was recorded. The SUV41% (Standardized Uptake Value 41%) was then calculated as 41% of each SUVmax value of given hotspot and the ROI was delineated based on this value (Boellaard et al. [2015]). All images were exported in maximum intensity projection (MIP) mode. The results from the ex vivo biodistribution study were subjected to statistical analysis, namely unpaired Student’s t-test (Microsoft Excel 365, USA).

[3] = Binding to human plasma proteins; type: in vitro ADME; conditions: human plasma, 37 °C, n = 2, read-out: Protein binding (%) (converted)
Protocol: (§2) Binding to human plasma proteins was determined following this procedure: 10 µL of the ⁶⁸Ga-P15 with radioactivity of 45 kBq/100 µL was mixed with 190 µL of human plasma. The sample was then incubated at 37 °C. After 0, 30, 60 and 120 min 25 µL of the sample was collected, applied to the appropriate column and centrifuged at 2000 g for 2 minutes. The radioactivity of the samples was then measured using a gamma counter 2480 Wizard^2 (PerkinElmer, Waltham, MA, USA), and then the binding to plasma proteins was calculated using the following formula % plasma protein binding = (Aelution/Atotal)×100. The same procedure was applied when determining binding to plasma proteins of ⁶⁸Ga-P16, ⁶⁸Ga-P19, and ⁶⁸Ga-PSMA-617.

PSMA = PSMA affinity, cited from earlier work
[4] = Stability in human plasma/serum (radiochemical purity by HPLC); type: in vitro ADME; conditions: 37 °C, incubation time 0 min, n = 1
human plasma proteins [5] = conditions: cited from earlier work
human plasma proteins [6] = assay: Binding to human plasma proteins; type: in vitro ADME; conditions: for Protein binding (%): human plasma, 37 °C, n = 2
Protocol: as §2

mouse serum proteins = test system: mouse serum proteins; set-up: method as in Umbricht et al. [2018]; conditions: ref Umbricht et al. [2018]; cited from earlier work
[7] = Stability in human plasma/serum (radiochemical purity by HPLC); type: in vitro ADME; conditions: radiochemical purity, 37 °C, n = 1
Protocol: as §1
Plasma stability was determined as follows. To 100 µL of ⁶⁸Ga-P15 with radioactivity of 45 kBq/100 µL, 400 µL of human plasma was added and mixed. The mixture was incubated at 37 °C and 100 µL samples were taken at 30, 60 and 120 min. These samples were then mixed with 200 µL of acetonitrile and placed on a shaker for 1 min. The sample was then centrifuged at 15,000 rpm for 3 min. After centrifugation, the supernatant was collected for radiochemical purity analysis by HPLC. The same procedure was applied when determining plasma stability of ⁶⁸Ga-P16, ⁶⁸Ga-P19, and ⁶⁸Ga-PSMA-617.

Radiochemical purity in physiological pH environment ([1]; each time-point tested (30, 60, 120 min)): highest stability
tumour-to-blood ratio ([2]; two-hours p.i.): 9.1 ± 1.7
tumour-to-muscle ratio ([2]; two-hours p.i.): 47.8 ± 12.4
SMILES: O=C(O)CC[C@H](NC(=O)N[C@@H](CCCCNC(=O)[C@@H](NC(=O)c1ccc(CNC(=O)CN2CCN(CC(=O)O)CCN(CC(=O)O)CCN(CC(=O)O)CC2)cc1)C(c1ccccc1)c1ccccc1)C(=O)O)C(=O)O [P19, Glu-urea-Lys-3,3-diphenyl-L-Ala-AMBA-DOTA]

fraction unbound at 0 min, 2.25 kBq/100 µL ([3]; incubation time 0 min): 0.47
fraction unbound at 120 min, 2.25 kBq/100 µL ([3]; incubation time 120 min): 0.46
tumour-to-background ratio, fold higher than [68Ga]Ga-P19 ([2]; two hours after administration): ~1.5 fold
SMILES: O=C(O)CC[C@H](NC(=O)N[C@@H](CCCCNC(=O)[C@H](Cc1ccc2ccccc2c1)NC(=O)[C@H]1CC[C@H](CNC(=O)CN2CCN(CC(=O)O)CCN(CC(=O)O)CCN(CC(=O)O)CC2)CC1)C(=O)O)C(=O)O [PSMA-617, Glu-urea-Lys-2-Nal-L-Ala-CHX-DOTA, reference compound]
Ki (PSMA; ref Benešová et al. [2015]): 2.34 nM

SMILES: NCCCCC(NC(=O)NC(CCC(=O)O)C(=O)O)C(=O)O (centres unmarked) [Glu-urea-Lys]
Ki (PSMA; ref Banerjee et al. [2008]): 15.2 nM

Stability in human serum (%) [4]: 98.4%
Protein binding (%) (human plasma proteins [6]; incubation time 0 min): 52.6%
Protein binding (%) (human plasma proteins [6]; incubation time 30 min): 52.9%
Protein binding (%) (human plasma proteins [6]; incubation time 60 min): 53.3%
Protein binding (%) (human plasma proteins [6]; incubation time 120 min): 54.3%
Binding rate to human plasma proteins (human plasma proteins [6]; overall statement, incubation up to 120 min): approximately 54%
Stability in Physiological pH (%) ([1]; incubation time 0 min): 98.4%
Stability in Physiological pH (%) ([1]; incubation time 30 min): 98.5%
Stability in Physiological pH (%) ([1]; incubation time 60 min): 98.9%
Stability in Physiological pH (%) ([1]; incubation time 120 min): 98.5%
tumour-to-blood ratio ([2]; one-hour p.i.): 5.5 ± 2.0
tumour-to-kidney ratio ([2]; one-hour p.i.): 0.12 ± 0.03
tumour-to-kidney ratio ([2]; two hours post injection): 1.26 ± 0.46
tumour-to-blood ratio ([2]; two-hours p.i.): 13.6 ± 7.0
tumour-to-muscle ratio ([2]; two-hours p.i.): 68.4 ± 66.1
Stability in human serum (%) ([7]; incubation time 30 min): 97.8%
Stability in human serum (%) ([7]; incubation time 60 min): 98.2%
Stability in human serum (%) ([7]; incubation time 120 min): 98.7%
SMILES: O=C([O-])CN1CCN(CC(=O)[O-])CCN(CC(=O)NCC2CCC(C(=O)NC(Cc3ccc4ccccc4c3)C(=O)NCCCCC(NC(=O)NC(CCC(=O)O)C(=O)O)C(=O)O)CC2)CCN(CC(=O)[O-])CC1.[68Ga+3] (centres unmarked) [[^68Ga]Ga-PSMA-617, reference compound]
Binding to plasma proteins (human plasma proteins [5]; human, ref Benešová et al. [2018]): 59%
Binding to human plasma proteins (human plasma proteins [5]; ref Umbricht et al. [2018]): 59%
Binding to mouse serum proteins (mouse serum proteins): 6%

specific accumulation (tumour), fold lower than [68Ga]Ga-PSMA-617 ([2]; one-hour p.i.): 7 fold
specific accumulation (tumour), fold lower than [68Ga]Ga-PSMA-617 ([2]; two-hours p.i.): more than 17.5 fold
SMILES: O=C(O)CC[C@H](NC(=O)N[C@@H](CCC(=O)N[C@H](Cc1ccc2ccccc2c1)C(=O)N[C@H]1CC[C@H](NC(=O)CN2CCN(CC(=O)O)CCN(CC(=O)O)CCN(CC(=O)O)CC2)CC1)C(=O)O)C(=O)O [P15, Glu-urea-Glu-2-Nal-D-Ala-NH-CHX-NH-DOTA]

SMILES: O=C(O)CCC(NC(=O)NC(CCC(=O)O)C(=O)O)C(=O)O (centres unmarked) [Glu-urea-Glu]
Ki (PSMA; ref Kozikowski et al. [2001]): 47 nM
